Laboratory results reported in paper PMC6121260, “Sulfated Metabolites of Flavonolignans and 2,3-Dehydroflavonolignans: Preparation and Properties” (International Journal of Molecular Sciences, 2018).
Marks after values point to notes of the source that are not given here.

Tests used:
[1] = ABTS+ cation radical scavenging; format: biochemical; conditions: vitamin C equivalents, mean ± standard error
Procedure: (§1) N,N-dimethyl-p-phenylenediamine (DMPD) and 2,2′-azino-bis(3-ethylbenzothiazolin-6-sulfonic acid (ABTS) cation radical scavenging and ferric reducing antioxidant power (FRAP) were measured using kits from Bioquochem (Llanera-Asturias, Spain). Antiradical activity by 2,2-diphenyl-1-picrylhydrazyl radical scavenging assay, reducing capacity using Folin–Ciocalteau reagent (FCR), and anti-lipoperoxidant activity using inhibition of lipid peroxidation of rat liver microsomes induced by tert-butyl hydroperoxide were determined as described previously with modifications described in detail in our previous research.

[2] = tested on: NAD(P)/quinone oxidoreductase 1 (NQO1) activity in Hepa1c1c7 cells; assay: NQO1 activity in Hepa1c1c7 cells (Nrf2 pathway); format: cell-based, murine; conditions: 48 h; for NQO1 activity, fold versus control: 50 µM
Procedure: The murine hepatoma Hepa1c1c7 cell line (ECACC, Salisbury, UK) was cultured in minimum essential medium α (M0894, Sigma-Aldrich, St. Louis, MO, USA), supplemented with 2.2 g/L NaHCO3 and 10% heat- and charcoal-treated fetal bovine serum (Biochrom, Berlin, Germany), and maintained at 37 °C in a humidified atmosphere containing 5% CO2. For all experiments, cells were seeded onto 96-well plates at 1 × 10^4 cells/well. After 24 h of stabilization, cells were treated for 48 h with 0.1% (v/v) DMSO (negative control), 2.5 µM sulforaphane (positive control; Sigma-Aldrich, St. Louis, MO, USA), or with the tested compounds in fresh culture medium. After the treatment, the activity of NQO1 was determined spectrophotometrically as described previously. Cells were washed with phosphate-buffered saline (PBS) and lysed with 75 µL of digitonin solution (0.8 g/L digitonin, 2 mM EDTA, pH 7.8) by shaking on an orbital shaker for 20 min at room temperature. A part of the cell lysate (20 µL) was used to determine the protein content. The remaining lysate (55 µL) was mixed with 200 µL of 0.5 M Tris-Cl buffer containing 10% (w/v) bovine serum albumin, 1.5% (v/v) Tween-20, 7.5 mM FAD, 150 mM glucose-6-phosphate, 2 U/mL glucose-6-phosphate dehydrogenase (Roche Diagnostics, Mannheim, Germany), 50 mM NADP^+, 25 mM menadione, and 0.7 mM 3-(4,5-dimethylthiazol-2-yl)-2,5-diphenyltetrazolium bromide (MTT). The mixture was incubated for 5 min at room temperature and the reaction was stopped with 50 µL of dicumarol suspension (0.3 mM dicumarol, 5 mM potassium phosphate, 0.5% (v/v) DMSO). The absorbance of the reduced MTT corresponding to the activity of NQO1 was measured at 610 nm on a spectrophotometric plate reader. The absorbance values were normalized to the protein content and used for the calculation of fold changes versus the control.

[3] = Log p, octan-1-ol / phosphate buffer partition; format: physicochemical; conditions: octan-1-ol / 6.6 mM phosphate buffer pH 7.4, 25 °C
Procedure: The hydrophobicity of the compounds was determined by measuring their partition coefficient P in a mixture of two immiscible phases—octan-1-ol and 6.6 mM phosphate buffer pH 7.4. Stock solutions (0.5 mM) were prepared in octan-1-ol (parent compounds) and in the buffer (sulfated compounds). The stock solutions (150 µL) were mixed with 150 µL of the immiscible phase in microcentrifuge tubes (1.5 mL); shaken for 2 h (750 rpm, 25 °C); and after incubation, the phases were separated. Water phases were diluted 1:1 with the mobile phase (acetonitrile/deionized water/HCO2H, 5:95:0.1; v/v) and analyzed by HPLC using the gradient G3 (see Section 3.1.3). Octan-1-ol phases were evaporated in the stream of air (70 °C), then dissolved in 10 µL of DMSO, and mixed with 90 µL of mobile phase and analyzed by HPLC. The log p values were calculated from the respective peak heights (h) using the formula log p = log(hoctanol/hbuffer). For comparison, log p values were calculated using the Molinspiration property engine v2016.10 (http://www.molinspiration.com, Molinspiration Cheminformatics, Slovensky Grob, Slovakia) (access on 26th October 2017).

[4] = DMPD+ cation radical scavenging; format: biochemical; conditions: vitamin C equivalents, mean ± standard error
Procedure: as §1

[5] = DPPH radical scavenging; format: biochemical; conditions: mean ± standard error
Procedure: as §1

[6] = Inhibition of lipoperoxidation (Lpx) induced by tert-butyl hydroperoxide; format: biochemical; conditions: rat liver microsomal membranes, mean ± standard error
Procedure: as §1

[7] = Folin–Ciocalteu reagent (FCR) reduction; format: biochemical; conditions: Folin–Ciocalteau reagent reduction, gallic acid equivalents, mean ± standard error
Procedure: as §1

[8] = Ferric reducing antioxidant power (FRAP); format: biochemical; conditions: equivalents of Fe^2+, mean ± standard error
Procedure: as §1

[9] = target: T1, aryl sulfotransferase from rat liver (AST IV) (Rattus norvegicus, UniProt P17988); assay: Substrate specificity of AST IV (whole E. coli cells, p-NPS donor); format: in vitro ADME; parameters: key: +: isolated sulfated product(s) and/or release of p-nitrophenol (p-NP); –: no formation of p-NP and/or isolated sulfated products; conditions: whole E. coli cells expressing AST IV, 37 °C, 72 h
T1 construct: made in house; host or cells: E. coli BL21 (DE3) Gold (whole cells used as catalyst)
T1 sequence (P17988 whole entry): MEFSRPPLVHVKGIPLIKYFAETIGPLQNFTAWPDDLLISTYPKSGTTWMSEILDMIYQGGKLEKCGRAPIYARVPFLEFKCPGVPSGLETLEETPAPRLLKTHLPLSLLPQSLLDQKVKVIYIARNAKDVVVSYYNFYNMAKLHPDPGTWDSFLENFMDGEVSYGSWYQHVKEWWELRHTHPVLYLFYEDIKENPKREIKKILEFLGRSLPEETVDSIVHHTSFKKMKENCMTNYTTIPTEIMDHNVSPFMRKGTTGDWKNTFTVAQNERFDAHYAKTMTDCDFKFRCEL
Procedure: The plasmid bearing astIV gene was kindly provided by Prof. L. Elling, RWTH Aachen, Germany. The enzyme was expressed in E. coli BL21 (DE3) Gold as described, with modifications reported in our previous work. Whole E. coli cells producing the enzyme, freshly prepared according to the literature, were employed in the biotransformation experiments as a catalyst.
Silybin, silybin A, silybin B, silychristin, and silydianin (separately, each 50 mg, 0.104 mmol) and p-nitrophenyl sulfate (p-NPS, 35 mg, 0.136 mmol; Sigma-Aldrich, St. Louis, MO, USA) were dissolved in 3 mL DMSO, and 2 g (wet based) of whole cells expressing AST IV resuspended in K-phosphate buffer (pH 7.5, 17 mL) were added. The reaction mixture was incubated on a rotary shaker at 37 °C for 24 h. The cells were then removed by centrifugation (30 min, 5000 rpm, 5404 R Eppendorf, Germany), a new portion of fresh cells (2 g in 15 mL, wet based, resuspended in K-phosphate buffer) were added to the supernatant and incubated for 24 h. This step was repeated once more with a total reaction time of 72 h. The reaction was monitored by HPLC and after 72 h, the reaction mixtures, containing the sulfated product(s), were purified by preparative HPLC employing Asahipak GS-310 20F (Shodex, Tokyo, Japan) column with isocratic elution with 100% methanol. The fraction containing the putative sulfated product(s) was evaporated, dissolved in 1 mL of 80% methanol, and loaded onto a Sephadex LH-20 column (15 g dry weight, 12 mm i.d.) packed and eluted with 80% methanol. Only one sulfated product was obtained; silybin B 20-O-sulfate (14.5 mg, 0.03 mmol, yield 25%), whose identity was confirmed by comparison with previously published data.

SMILES	ABTS^+ [CE] [1]	NQO1 activity, fold versus control [2] [fold]	logP at 2 h [3]	DMPD^+ [CE] [4]	IC50 [5] [µM]	IC50 [6] [µM]	FCR [GAE] [7]	FRAP [Fe^2+] [8]	other results
COc1cc(C2Oc3cc(-c4oc5cc(OS(=O)(=O)O)cc(O)c5c(=O)c4O)ccc3OC2CO)ccc1OS(=O)(=O)O (stereo not shown) [2,3-Dehydrosilybin-7,20-di-O-sulfate]	0.55 ± 0.03 CE	1.2	< -3	1.90 ± 0.10 CE	106 ± 4	90.7 ± 3.3	0.95 ± 0.01 ^m GAE	1.61 ± 0.04 Fe^2+	DMPD^+ [CE] ([4]; listed as 2,3-dehydrosilybin disulfate): 1.90 CE; FRAP [Fe^2+] ([8]; listed as 2,3-dehydrosilybin-7,20-di-O-sulfate): 1.61 Fe^2+
COc1cc(C2Oc3c(O)cc([C@H]4Oc5cc(O)cc(O)c5C(=O)[C@@H]4O)cc3C2CO)ccc1OS(=O)(=O)O (stereo partly shown) [Silychristin-19-O-sulfate]	0.62 ± 0.03 ^k CE	1.3	-2.25	1.56 ± 0.08^o CE	587 ± 11	134 ± 2	0.80 ± 0.11 ^m GAE	0.05 ± 0.01 ^q Fe^2+	–
COc1cc([C@H]2Oc3cc([C@H]4Oc5cc(O)cc(O)c5C(=O)[C@@H]4O)ccc3O[C@@H]2CO)ccc1O [Silybin A, silybin A, reference compound]	1.01 ± 0.03 ^i CE	–	1.52	0.96 ± 0.01 ^n CE	490 ± 21	48.6 ± 0.4	0.33 ± 0.02 ^k GAE	0.06 ± 0.00 Fe^2+	Formation of p-NP [9]: – ^c
COc1cc(C2Oc3cc([C@H]4Oc5cc(O)cc(O)c5C(=O)[C@@H]4O)ccc3OC2CO)ccc1O (stereo partly shown) [Silybin A/B, Silybin]	–	–	–	–	–	–	–	–	Formation of p-NP [9]: + ^a
COc1cc([C@@H]2Oc3cc([C@H]4Oc5cc(O)cc(O)c5C(=O)[C@@H]4O)ccc3O[C@H]2CO)ccc1OS(=O)(=O)O [Silybin B 20-O-sulfate]	0.04 ± 0.00 CE	0.9	-2.34	0.99 ± 0.01 ^n CE	> 2500	> 1000	0.16 ± 0.02 GAE	0.01 ± 0.00 ^p Fe^2+	FCR [GAE] ([7]; listed as silybin sulfates B): 0.16 GAE
COc1cc(C2Oc3cc(-c4oc5cc(O)cc(O)c5c(=O)c4O)ccc3OC2CO)ccc1OS(=O)(=O)O (stereo not shown) [2,3-Dehydrosilybin-20-O-sulfate]	0.71 ± 0.03 ^j CE	1.3	-2.16	0.97 ± 0.02 ^n CE	14.1 ± 0.5	13.7 ± 0.4	1.03 ± 0.01 ^m GAE	1.46 ± 0.03 ^r Fe^2+	–
COc1cc(C2Oc3c(O)cc(-c4oc5cc(O)cc(O)c5c(=O)c4O)cc3C2CO)ccc1OS(=O)(=O)O (stereo not shown) [2,3-Dehydro-silychristin-19-O-sulfate, 2,3-Dehydrosilychristin-19-O-sulfate]	0.62 ± 0.02 ^n CE	1.4	-2.24	1.02 ± 0.04 ^n CE	7.9 ± 0.3	12 ± 1.8	1.44 ± 0.01 ^l GAE	1.44 ± 0.04 ^r Fe^2+	IC50 ([5]; listed as 2,3-dehydrosilychristin monosulfate): 8 µM
COc1cc([C@H]2Oc3cc([C@H]4Oc5cc(O)cc(O)c5C(=O)[C@@H]4O)ccc3O[C@@H]2CO)ccc1OS(=O)(=O)O [Silybin A 20-O-sulfate]	0.02 ± 0.00 CE	1.2	-1.65	0.98 ± 0.01 ^n CE	> 2500	> 1000	0.08 ± 0.01 GAE	0.01 ± 0.00 ^p Fe^2+	FCR [GAE] ([7]; listed as silybin sulfates A): 0.08 GAE
C[S+]([O-])CCCCN=C=S (stereo not shown) [sulforaphane, reference compound]	–	–	–	–	–	–	–	–	NQO1 activity, fold increase compared with the control ([2]; 2.5 µM, positive control): 4.3 fold
COc1cc(C2Oc3cc(-c4oc5cc(O)cc(O)c5c(=O)c4O)ccc3OC2CO)ccc1O (stereo not shown) [2,3-Dehydrosilybin, reference compound]	0.77 ± 0.01 ^j CE	–	> 3	1.02 ± 0.02 ^n CE	13.3 ± 0.6	10.4 ± 0.4	1.51 ± 0.09 ^l GAE	0.81 ± 0.02 Fe^2+	IC50 ([5]; listed as 2,3-dehydrosilybin): 13 to 14 µM; FCR [GAE] ([7]; listed as 2,3-dehydrosilybin): 1.50 GAE; FRAP [Fe^2+] ([8]; listed as 2,3-dehydrosilybin): 0.81 Fe^2+
Cc1c(C)c2c(c(C)c1O)CCC(C)(C(=O)O)O2 (stereo not shown) [Trolox, reference compound]	–	–	–	–	2.9 ± 0.1	32.7 ± 2.4	0.33 ± 0.00 ^k GAE	–	–
COc1cc([C@@H]2[C@H]3CO[C@@]4(O)C(=O)[C@@H]2C=C([C@H]2Oc5cc(O)cc(O)c5C(=O)[C@@H]2O)[C@@H]34)ccc1O [Silydianin]	–	–	–	–	–	–	–	–	Formation of p-NP [9]: + ^a
COc1cc(C2Oc3c(O)cc(-c4oc5cc(O)cc(O)c5c(=O)c4O)cc3C2CO)ccc1O (stereo not shown) [2,3-Dehydrosilychristin, reference compound]	0.93 ± 0.03 ^l CE	–	> 3	0.97 ± 0.02 ^n CE	8.6 ± 0.8	14.6 ± 0.4	1.58 ± 0.04 ^l GAE	0.28 ± 0.01 Fe^2+	FCR [GAE] ([7]; listed as 2,3-dehydrosilychristin): 1.58 GAE
